{"source": "patent US9833497B2", "about": "“Human originated EGF domain proteins and use of the same” (CHENGDU SOURCEBIO LIMITED-LIABILITY COMPANY, priority 2013, dated 2017)", "format_in_all_cases": "cell-based", "key": {"[1]": {"tested_on": "E. coli DH5α", "experiment": "Antibacterial activity: MIC and growth curve against E. coli DH5α in 96-well plate", "details": "minimal inhibitory concentration against E. coli DH5α; 96-well plate, 5×10^5 CFU/mL, 37° C., judged after 8 h", "procedure,_shortened": "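Log-phase DH5α (OD600 about 0.5, 37° C, 185 rpm in LB) was pelleted, resuspended in fresh LB and seeded at 5×10^5 CFU/mL with recombinant protein at 50, 25 and 12.5 μg/mL (two-fold series), in triplicate. Plates were shaken at 175 rpm, 37° C, and OD600 was read every 30 min. MIC was the lowest concentration with no growth.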"}, "[2]": {"tested_on": "E. coli BL21", "experiment": "MIC against Gram-negative bacteria: E. coli BL21", "details": "5×10^5 CFU/mL", "procedure,_shortened": "(§1)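 LB broth cultures at McFarland 0.5, spun down, resuspended, diluted to 5×10^5 CFU/mL final. Two-fold serial dilutions of purified human EGF domain proteins, triplicate. 37° C, 175 rpm shaking. Endpoint: no visible growth.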"}, "[3]": {"tested_on": "Pseudomonas aeruginosa", "experiment": "MIC against Gram-negative bacteria: Pseudomonas aeruginosa", "details": "5×10^5 CFU/mL", "procedure,_shortened": "as §1"}, "[4]": {"tested_on": "Klebsiella pneumonia", "experiment": "MIC against Gram-negative bacteria: Klebsiella pneumonia", "details": "5×10^5 CFU/mL", "procedure,_shortened": "as §1"}, "[5]": {"tested_on": "Enterobacter cloacae", "experiment": "MIC against Gram-negative bacteria: Enterobacter cloacae", "details": "5×10^5 CFU/mL", "procedure,_shortened": "as §1"}, "[6]": {"tested_on": "Aeromonas hydrophila", "experiment": "MIC against Gram-negative bacteria: Aeromonas hydrophila", "details": "5×10^5 CFU/mL", "procedure,_shortened": "as §1"}, "[7]": {"tested_on": "Citrobacter diversus", "experiment": "MIC against Gram-negative bacteria: Citrobacter diversus", "details": "5×10^5 CFU/mL", "procedure,_shortened": "as §1"}, "[8]": {"tested_on": "Moraxella catarrhalis", "experiment": "MIC against Gram-negative bacteria: Moraxella catarrhalis", "details": "5×10^5 CFU/mL", "procedure,_shortened": "as §1"}, "[9]": {"tested_on": "Proteus mirabilis", "experiment": "MIC against Gram-negative bacteria: Proteus mirabilis", "details": "5×10^5 CFU/mL", "procedure,_shortened": "as §1"}, "[10]": {"tested_on": "Proteus vulgaris", "experiment": "MIC against Gram-negative bacteria: Proteus vulgaris", "details": "5×10^5 CFU/mL", "procedure,_shortened": "as §1"}, "[11]": {"tested_on": "Serratia marcescens", "experiment": "MIC against Gram-negative bacteria: Serratia marcescens", "details": "5×10^5 CFU/mL", "procedure,_shortened": "as §1"}, "[12]": {"details": "E. coli BL21, 10 h cultivation at 37° C."}}}
{"substance": "PRT541 (CSCDLRGTLGGVAECQPGTGQCFCKPHVCGQACASCKDGFFGLDQADYFGCRS; listed as Homo sapiens)", "values": [{"measurement": "MIC", "setting": "[1]", "value": 12.5, "unit": "µg/mL"}, {"measurement": "MIC against E. coli BL21", "setting": "[2]; 96-well plate, 37° C., 10 h", "value": 50, "unit": "µg/mL"}, {"measurement": "MIC against P. aeruginosa", "setting": "[3]; 96-well plate, 37° C., 10 h", "value": 100, "unit": "µg/mL"}, {"measurement": "MIC against K. pneumonia", "setting": "[4]; 96-well plate, 37° C., 10 h", "value": 50, "unit": "µg/mL"}, {"measurement": "MIC against E. cloacae", "setting": "[5]; 96-well plate, 37° C., 10 h", "value": 12.5, "unit": "µg/mL"}, {"measurement": "MIC against A. hydrophila", "setting": "[6]; 96-well plate, 37° C., 10 h", "value": 50, "unit": "µg/mL"}, {"measurement": "MIC against C. diversus", "setting": "[7]; 96-well plate, 37° C., 10 h", "value": 12.5, "unit": "µg/mL"}, {"measurement": "MIC against M. catarrhalis", "setting": "[8]; 96-well plate, 37° C., 10 h", "value": 50, "unit": "µg/mL"}, {"measurement": "MIC against P. mirabilis", "setting": "[9]; 96-well plate, 37° C., 10 h", "value": 12.5, "unit": "µg/mL"}, {"measurement": "MIC against P. vulgaris", "setting": "[10]; 96-well plate, 37° C., 10 h", "value": 25, "unit": "µg/mL"}, {"measurement": "MIC against S. marcescens", "setting": "[11]; 96-well plate, 37° C., 10 h", "value": 50, "unit": "µg/mL"}]}
{"substance": "PRT260 (CRAGNGGCHGLATCRAVGGGQRVCTCPPGFGGDGFSC; listed as Homo sapiens)", "values": [{"measurement": "MIC", "setting": "[1]", "value": 12.5, "unit": "µg/mL"}, {"measurement": "MIC (μg/mL) E. coli BL21", "setting": "[2]; [12]", "value": 25, "unit": "µg/mL"}, {"measurement": "MIC (μg/mL) P. aeruginosa", "setting": "[3]; 10 h cultivation at 37° C.", "value": 50, "unit": "µg/mL"}, {"measurement": "MIC (μg/mL) K. pneumonia", "setting": "[4]; 10 h cultivation at 37° C.", "value": 25, "unit": "µg/mL"}, {"measurement": "MIC (μg/mL) E. cloacae", "setting": "[5]; 10 h cultivation at 37° C.", "value": 12.5, "unit": "µg/mL"}, {"measurement": "MIC (μg/mL) A. hydrophila", "setting": "[6]; 10 h cultivation at 37° C.", "value": 25, "unit": "µg/mL"}, {"measurement": "MIC (μg/mL) C. diversus", "setting": "[7]; 10 h cultivation at 37° C.", "value": 50, "unit": "µg/mL"}, {"measurement": "MIC (μg/mL) M. catarrhalis", "setting": "[8]; 10 h cultivation at 37° C.", "value": 25, "unit": "µg/mL"}, {"measurement": "MIC (μg/mL) P. mirabilis", "setting": "[9]; 10 h cultivation at 37° C.", "value": 12.5, "unit": "µg/mL"}, {"measurement": "MIC (μg/mL) P. vulgaris", "setting": "[10]; 10 h cultivation at 37° C.", "value": 12.5, "unit": "µg/mL"}, {"measurement": "MIC (μg/mL) S. marcescens", "setting": "[11]; 10 h cultivation at 37° C.", "value": 12.5, "unit": "µg/mL"}]}
{"substance": "PRT1378 (AIQTCPGDCRGRGECHDGSCVCKDGYAGEDCG; listed as Homo sapiens)", "values": [{"measurement": "MIC", "setting": "[1]", "value": 50, "unit": "µg/mL"}, {"measurement": "MIC against E. coli BL21", "setting": "[2]; [12]", "value": 25, "unit": "µg/mL"}, {"measurement": "MIC against P. aeruginosa", "setting": "[3]; Pseudomonas aeruginosa, 10 h cultivation at 37° C.", "value": 12.5, "unit": "µg/mL"}, {"measurement": "MIC against K. pneumonia", "setting": "[4]; Klebsiella pneumonia, 10 h cultivation at 37° C.", "value": 25, "unit": "µg/mL"}, {"measurement": "MIC against E. cloacae", "setting": "[5]; Enterobacter cloacae, 10 h cultivation at 37° C.", "value": 12.5, "unit": "µg/mL"}, {"measurement": "MIC against A. hydrophila", "setting": "[6]; Aeromonas hydrophila, 10 h cultivation at 37° C.", "value": 12.5, "unit": "µg/mL"}, {"measurement": "MIC against C. diversus", "setting": "[7]; Citrobacter diversus, 10 h cultivation at 37° C.", "value": 25, "unit": "µg/mL"}, {"measurement": "MIC against M. catarrhalis", "setting": "[8]; Moraxella catarrhalis, 10 h cultivation at 37° C.", "value": 12.5, "unit": "µg/mL"}, {"measurement": "MIC against P. mirabilis", "setting": "[9]; Proteus mirabilis, 10 h cultivation at 37° C.", "value": 25, "unit": "µg/mL"}, {"measurement": "MIC against P. vulgaris", "setting": "[10]; Proteus vulgaris, 10 h cultivation at 37° C.", "value": 12.5, "unit": "µg/mL"}, {"measurement": "MIC against S. marcescens", "setting": "[11]; Serratia marcescens, 10 h cultivation at 37° C.", "value": 25, "unit": "µg/mL"}]}
{"substance": "PRT865 (CSCHPVGSAVLPANSVTFCDPSNGDCPCKPGVAGRRCDRCMVGYWGFGDYGCRP; listed as Homo sapiens)", "values": [{"measurement": "MIC", "setting": "[1]", "value": 25, "unit": "µg/mL"}, {"measurement": "MIC (μg/mL) E. coli BL21", "setting": "[2]; [12]", "value": 12.5, "unit": "µg/mL"}, {"measurement": "MIC (μg/mL) P. aeruginosa", "setting": "[3]; 10 h cultivation at 37° C.", "value": 25, "unit": "µg/mL"}, {"measurement": "MIC (μg/mL) K. pneumonia", "setting": "[4]; 10 h cultivation at 37° C.", "value": 50, "unit": "µg/mL"}, {"measurement": "MIC (μg/mL) E. cloacae", "setting": "[5]; 10 h cultivation at 37° C.", "value": 12.5, "unit": "µg/mL"}, {"measurement": "MIC (μg/mL) A. hydrophila", "setting": "[6]; 10 h cultivation at 37° C.", "value": 50, "unit": "µg/mL"}, {"measurement": "MIC (μg/mL) C. diversus", "setting": "[7]; 10 h cultivation at 37° C.", "value": 12.5, "unit": "µg/mL"}, {"measurement": "MIC (μg/mL) M. catarrhalis", "setting": "[8]; 10 h cultivation at 37° C.", "value": 50, "unit": "µg/mL"}, {"measurement": "MIC (μg/mL) P. mirabilis", "setting": "[9]; 10 h cultivation at 37° C.", "value": 25, "unit": "µg/mL"}, {"measurement": "MIC (μg/mL) P. vulgaris", "setting": "[10]; 10 h cultivation at 37° C.", "value": 12.5, "unit": "µg/mL"}, {"measurement": "MIC (μg/mL) S. marcescens", "setting": "[11]; 10 h cultivation at 37° C.", "value": 12.5, "unit": "µg/mL"}]}
{"substance": "PRT463 (DVNECLQLPKACAYQCHNLQGSYRCLCPPGQTLLRDGKACT; listed as Homo sapiens)", "values": [{"measurement": "MIC", "setting": "[1]", "value": 50, "unit": "µg/mL"}, {"measurement": "MIC against E. coli BL21", "setting": "[2]; 96-well plate, 37° C., 10 h", "value": 12.5, "unit": "µg/mL"}, {"measurement": "MIC against P. aeruginosa", "setting": "[3]; 96-well plate, 37° C., 10 h", "value": 50, "unit": "µg/mL"}, {"measurement": "MIC against K. pneumonia", "setting": "[4]; 96-well plate, 37° C., 10 h", "value": 12.5, "unit": "µg/mL"}, {"measurement": "MIC against E. cloacae", "setting": "[5]; 96-well plate, 37° C., 10 h", "value": 50, "unit": "µg/mL"}, {"measurement": "MIC against A. hydrophila", "setting": "[6]; 96-well plate, 37° C., 10 h", "value": 12.5, "unit": "µg/mL"}, {"measurement": "MIC against C. diversus", "setting": "[7]; 96-well plate, 37° C., 10 h", "value": 50, "unit": "µg/mL"}, {"measurement": "MIC against M. catarrhalis", "setting": "[8]; 96-well plate, 37° C., 10 h", "value": 12.5, "unit": "µg/mL"}, {"measurement": "MIC against P. mirabilis", "setting": "[9]; 96-well plate, 37° C., 10 h", "value": 12.5, "unit": "µg/mL"}, {"measurement": "MIC against P. vulgaris", "setting": "[10]; 96-well plate, 37° C., 10 h", "value": 12.5, "unit": "µg/mL"}, {"measurement": "MIC against S. marcescens", "setting": "[11]; 96-well plate, 37° C., 10 h", "value": 50, "unit": "µg/mL"}]}
